Source: patent US20260028354A1, “TETRAHYDRONAPHTHALENE DERIVATIVES AS ESTROGEN RECEPTOR DEGRADERS” (REGENT OF THE UNIVERSITY OF MICHIGAN, priority 2022, published 2026)
Where two headings read alike, the source gives them in different places.

Experiments:
[1] = target: ER (Homo sapiens (Human), UniProt P03372); test: In-cell western blot analysis of ER for "B" compounds; type: cell-based; conditions: 16 hours, read-out: ICW DC50
Method in brief: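 In-cell western: fixed cells stained with primary antibodies (2 h, RT), then anti-rabbit-680 and anti-mouse-800 secondaries (1:1000, 1 h, RT), imaged on a LI-COR plate reader. Relative ER level in treated wells expressed against untreated and DMSO-treated wells set as 100%.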

[2] = Cell growth assay (WST-8) for "B" compounds; type: cell-based; conditions: T47D, read-out: Cell growth Inhibition in T47D cell line IC50
Method in brief: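 Cells seeded at 1500/well overnight, then exposed to compounds for 4 days. 10% WST-8 added for 2.5 h at 37 °C and absorbance read at 450 nm. Growth given as absorbance relative to vehicle control, from three repeats.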

Chain of ER (P03372 whole entry): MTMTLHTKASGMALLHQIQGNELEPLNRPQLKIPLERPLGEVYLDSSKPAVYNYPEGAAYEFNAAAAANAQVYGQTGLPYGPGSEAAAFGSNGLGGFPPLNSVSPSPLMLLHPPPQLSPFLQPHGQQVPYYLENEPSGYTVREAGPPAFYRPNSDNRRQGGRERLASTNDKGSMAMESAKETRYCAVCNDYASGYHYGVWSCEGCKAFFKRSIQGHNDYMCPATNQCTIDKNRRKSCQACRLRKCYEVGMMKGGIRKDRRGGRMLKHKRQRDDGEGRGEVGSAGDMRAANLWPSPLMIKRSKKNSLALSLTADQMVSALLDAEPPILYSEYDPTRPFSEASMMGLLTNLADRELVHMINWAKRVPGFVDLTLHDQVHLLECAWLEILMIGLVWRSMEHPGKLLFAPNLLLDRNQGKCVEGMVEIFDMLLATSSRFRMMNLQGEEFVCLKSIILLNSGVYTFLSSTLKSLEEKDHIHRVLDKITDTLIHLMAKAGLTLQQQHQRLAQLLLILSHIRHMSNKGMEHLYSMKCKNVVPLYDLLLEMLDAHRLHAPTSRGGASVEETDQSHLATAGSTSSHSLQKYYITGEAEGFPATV

Structure (SMILES) | DC50 [1] [nM] | IC50 [2] [nM] | IC50 ([2]; T47D cell line) [nM]
O=C1CCC(N2Cc3c(ccc4c3OCC43CCN(CC(=O)N4CCC5(CC4)CN(c4ccc([C@@H]6c7ccc(O)cc7CC[C@@H]6c6ccccc6)cc4)C5)CC3)C2=O)C(=O)N1 (stereo partly drawn) [Compound B213, 3-(1′-(2-(2-(4-((1R,2S)-6-hydroxy-2-phenyl-1,2,3,4-tetrahydronaphthalen-1-yl)phenyl)-2,7-diazaspiro[3.5]nonan-7-yl)-2-oxoethyl)-6-oxo-6,8-dihydro-2H,7H-spiro[furo[2,3-e]isoindole-3,4′-piperidin]-7-yl)piperidine-2,6-dione] | < 10 | < 1 | –
O=C1CCC(N2Cc3c(ccc4c3OCC43CCN(CC(=O)N4CC5(CCN(c6ccc([C@@H]7c8ccc(O)cc8CC[C@@H]7c7ccccc7)cc6)C5)C4)CC3)C2=O)C(=O)N1 (stereo partly drawn) [Compound B212, 3-(1′-(2-(6-(4-((1R,2S)-6-hydroxy-2-phenyl-1,2,3,4-tetrahydronaphthalen-1-yl)phenyl)-2,6-diazaspiro[3.4]octan-2-yl)-2-oxoethyl)-6-oxo-6,8-dihydro-2H,7H-spiro[furo[2,3-e]isoindole-3,4′-piperidin]-7-yl)piperidine-2,6-dione] | < 10 | < 1 | –
O=C1CC[C@H](N2Cc3c(ccc4c3OCC43CCN(C[C@@H]4CCC5(CCN(c6ccc([C@@H]7c8ccc(O)cc8CC[C@@H]7c7ccccc7)cc6)CC5)OC4)CC3)C2=O)C(=O)N1 [Compound B400, (S)-3-(1′-(((S)-9-(4-((1R,2S)-6-hydroxy-2-phenyl-1,2,3,4-tetrahydronaphthalen-1-yl)phenyl)-1-oxa-9-azaspiro[5.5]undecan-3-yl)methyl)-6-oxo-6,8-dihydro-2H,7H-spiro[furo[2,3-e]isoindole-3,4′-piperidin]-7-yl)piperidine-2,6-dione] | < 10 | < 1 | –
O=C1CCC(N2Cc3c(ccc4c3OCC43CCN(CC4COC5(CN(c6ccc([C@@H]7c8ccc(O)cc8CC[C@@H]7c7ccccc7)cc6)C5)OC4)CC3)C2=O)C(=O)N1 (stereo partly drawn) [Compound B346, 3-(1′-((2-(4-((1R,2S)-6-hydroxy-2-phenyl-1,2,3,4-tetrahydronaphthalen-1-yl)phenyl)-5,9-dioxa-2-azaspiro[3.5]nonan-7-yl)methyl)-6-oxo-6,8-dihydro-2H,7H-spiro[furo[2,3-e]isoindole-3,4′-piperidin]-7-yl)piperidine-2,6-dione] | 10 to 100 | 1 to 10 | –
O=C1CCC(N2C(=O)c3cc4c(cc3C2=O)CN(CC2COC3(CCN(c5ccc([C@@H]6c7ccc(O)cc7CC[C@@H]6c6ccccc6)cc5)CC3)C2)C4)C(=O)N1 (stereo partly drawn) [Compound B235, 2-(2,6-dioxopiperidin-3-yl)-6-((8-(4-((1R,2S)-6-hydroxy-2-phenyl-1,2,3,4-tetrahydronaphthalen-1-yl)phenyl)-1-oxa-8-azaspiro[4.5]decan-3-yl)methyl)-6,7-dihydropyrrolo[3,4-f]isoindole-1,3(2H,5H)-dione] | > 100 | – | 1 to 10
O=C1CCC(Nc2ccc(C3CCN(CC4COC5(CCN(c6ccc([C@@H]7c8ccc(O)cc8CC[C@@H]7c7ccccc7)cc6)CC5)OC4)CC3)cc2)C(=O)N1 (stereo partly drawn) [Compound B345, 3-((4-(1-((9-(4-((1R,2S)-6-hydroxy-2-phenyl-1,2,3,4-tetrahydronaphthalen-1-yl)phenyl)-1,5-dioxa-9-azaspiro[5.5]undecan-3-yl)methyl)piperidin-4-yl)phenyl)amino)piperidine-2,6-dione] | > 100 | – | 1 to 10
O=C1CCC(N2Cc3c(ccc4c3OCC43CCN(CC4CCC5(CN(c6ccc([C@@H]7c8ccc(O)cc8CC[C@@H]7c7ccccc7)cc6)C5)OC4)CC3)C2=O)C(=O)N1 (stereo partly drawn) [Compound B335, 3-(1′-((2-(4-((1R,2S)-6-hydroxy-2-phenyl-1,2,3,4-tetrahydronaphthalen-1-yl)phenyl)-5-oxa-2-azaspiro[3.5]nonan-7-yl)methyl)-6-oxo-6,8-dihydro-2H,7H-spiro[furo[2,3-e]isoindole-3,4′-piperidin]-7-yl)piperidine-2,6-dione] | 10 to 100 | < 1 | –
O=C1CCC(N2Cc3c(ccc4c3OCC43CCN(CC(=O)N4CC5(CC(Nc6ccc([C@@H]7c8ccc(O)cc8CC[C@@H]7c7ccccc7)cc6)C5)C4)CC3)C2=O)C(=O)N1 (stereo partly drawn) [Compound B170, 3-(1′-(2-(6-((4-((1R,2S)-6-hydroxy-2-phenyl-1,2,3,4-tetrahydronaphthalen-1-yl)phenyl)amino)-2-azaspiro[3.3]heptan-2-yl)-2-oxoethyl)-6-oxo-6,8-dihydro-2H,7H-spiro[furo[2,3-e]isoindole-3,4′-piperidin]-7-yl)piperidine-2,6-dione] | < 10 | < 1 | –

More lines, main results first:

DC50 [1] [nM] | Structure (SMILES) | IC50 [2] [nM] | IC50 ([2]; T47D cell line) [nM]
< 10 | O=C1CCC(N2Cc3c(ccc4c3OC[C@H]3CN(CC(=O)N5CC(Oc6ccc([C@@H]7c8ccc(O)cc8CC[C@@H]7c7ccccc7)cc6)C5)CCN43)C2=O)C(=O)N1 (stereo partly shown) [Compound B246] | – | < 1
> 100 | O=C1CCC(N2Cc3cc4c(cc3C2=O)OC[C@@H]2CN(CC3CC5(CCN(c6ccc([C@@H]7c8ccc(O)cc8CC[C@@H]7c7ccccc7)cc6)CC5)CO3)CCN42)C(=O)N1 (stereo partly drawn) [Compound B173, 3-((4aS)-3-((8-(4-((1R,2S)-6-hydroxy-2-phenyl-1,2,3,4-tetrahydronaphthalen-1-yl)phenyl)-2-oxa-8-azaspiro[4.5]decan-3-yl)methyl)-8-oxo-1,2,3,4,4a,5,8,10-octahydro-9H-pyrazino[1′,2′: 4,5][1,4]oxazino[2,3-f]isoindol-9-yl)piperidine-2,6-dione] | – | < 1
< 10 | O=C1CCC(N2Cc3c(ccc4c3OC[C@H]3CN(CC5COC6(C5)CN(c5ccc([C@@H]7c8ccc(O)cc8CC[C@@H]7c7ccccc7)cc5)C6)CCN43)C2=O)C(=O)N1 (stereo partly drawn) [Compound B230, 3-((5aR)-7-((2-(4-((1R,2S)-6-hydroxy-2-phenyl-1,2,3,4-tetrahydronaphthalen-1-yl)phenyl)-5-oxa-2-azaspiro[3.4]octan-7-yl)methyl)-1-oxo-1,3,5,5a,6,7,8,9-octahydro-2H-pyrazino[1′,2′:4,5][1,4]oxazino[2,3-e]isoindol-2-yl)piperidine-2,6-dione] | – | < 1
< 10 | O=C1CC[C@H](N2Cc3c(ccc4c3OC[C@H]3CN(CC5CCC6(CN(c7ccc([C@@H]8c9ccc(O)cc9CC[C@@H]8c8ccccc8)cc7)C6)OC5)CCN43)C2=O)C(=O)N1 (stereo partly drawn) [Compound B333, (3S)-3-((5aR)-7-((2-(4-((1R,2S)-6-hydroxy-2-phenyl-1,2,3,4-tetrahydronaphthalen-1-yl)phenyl)-5-oxa-2-azaspiro[3.5]nonan-7-yl)methyl)-1-oxo-1,3,5,5a,6,7,8,9-octahydro-2H-pyrazino[1′,2′:4,5][1,4]oxazino[2,3-e]isoindol-2-yl)piperidine-2,6-dione] | – | < 1
10 to 100 | O=C1CC[C@H](NC(=O)c2ccc3c(n2)OC[C@H]2CN(CC4CC5(CCN(c6ccc([C@@H]7c8ccc(O)cc8CC[C@@H]7c7ccccc7)cc6)CC5)C4)CCN32)C(=O)N1 [Compound B225, (R)-N-((S)-2,6-dioxopiperidin-3-yl)-3-((7-(4-((1R,2S)-6-hydroxy-2-phenyl-1,2,3,4-tetrahydronaphthalen-1-yl)phenyl)-7-azaspiro[3.5]nonan-2-yl)methyl)-1,2,3,4,4a,5-hexahydropyrazino[1,2-d]pyrido[2,3-b][1,4]oxazine-8-carboxamide] | – | 1 to 10
< 10 | O=C1CCC(N2Cc3cc4c(cc3C2=O)OC[C@@H]2CN(CC(=O)OC3CCN(c5ccc([C@@H]6c7ccc(O)cc7CC[C@@H]6c6ccccc6)cc5)CC3)CCN42)C(=O)N1 (stereo partly drawn) [Compound B342, 1-(4-((1R,2S)-6-hydroxy-2-phenyl-1,2,3,4-tetrahydronaphthalen-1-yl)phenyl)piperidin-4-yl 2-((4aS)-9-(2,6-dioxopiperidin-3-yl)-8-oxo-1,2,4a,5,9,10-hexahydro-8H-pyrazino[1′,2′:4,5][1,4]oxazino[2,3-f]isoindol-3(4H)-yl)acetate] | – | 1 to 10
> 100 | O=C1CC[C@H](NC(=O)c2ccc3c(n2)OC[C@H]2CN(CC4CCN(c5ccc([C@@H]6c7ccc(O)cc7CC[C@@H]6c6ccccc6)cc5)CC4)CCN32)C(=O)N1 [Compound B224, (R)-N-((S)-2,6-dioxopiperidin-3-yl)-3-((1-(4-((1R,2S)-6-hydroxy-2-phenyl-1,2,3,4-tetrahydronaphthalen-1-yl)phenyl)piperidin-4-yl)methyl)-1,2,3,4,4a,5-hexahydropyrazino[1,2-d]pyrido[2,3-b][1,4]oxazine-8-carboxamide] | – | 1 to 10
> 100 | O=C1CC[C@H](NC(=O)c2ccc3c(c2)OC[C@@H]2CN(CC4CCN(c5ccc([C@@H]6c7ccc(O)cc7CC[C@@H]6c6ccccc6)cc5)CC4)CCN32)C(=O)N1 [Compound B257, (S)-N-((S)-2,6-dioxopiperidin-3-yl)-3-((1-(4-((1R,2S)-6-hydroxy-2-phenyl-1,2,3,4-tetrahydronaphthalen-1-yl)phenyl)piperidin-4-yl)methyl)-1,2,3,4,4a,5-hexahydrobenzo[b]pyrazino[1,2-d][1,4]oxazine-8-carboxamide] | – | 1 to 10
< 10 | O=C1CCC(N2Cc3cc4c(cc3C2=O)OC[C@@H]2CN(C(=O)CN3CC5(C3)CN(c3ccc([C@@H]6c7ccc(O)cc7CC[C@@H]6c6ccccc6)cc3)C5)CCN42)C(=O)N1 (stereo partly drawn) [Compound B205, 3-((S)-3-(2-(6-(4-((1R,2S)-6-hydroxy-2-phenyl-1,2,3,4-tctrahydronaphthalen-1-yl)phenyl)-2,6-diazaspiro[3.3]heptan-2-yl)acetyl)-8-oxo-1,2,3,4,4a,5,8,10-octahydro-9H-pyrazino[1′,2′:4,5][1,4]oxazino[2,3-f]isoindol-9-yl)piperidine-2,6-dione] | – | 1 to 10
